In patent US11285132B2, “Uses of indolinone compounds” (Oncternal Therapeutics, Inc., priority 2016, dated 2022):

Experiments:
DLBCL cell lines [1] = assay: Combination with other targeted agents, summary over DLBCL cell lines; type: cell-based
Procedure: The latter synergism could be linked to the previously mentioned negative trend between TK-216 IC50 values and the presence of BCL2 translocation.
(§1) Cell lines were exposed to YK-4-279 or TK-216, alone or in combination with other compounds, for 72 h using a Tecan D300e Digital Dispenser and 96 well plates. Cell proliferation was measured with MTT. Synergy was determined with the Chou-Talalay combination index. Gene expression profiling (GEP) was performed with the Illumina HumanHT 12 Expression BeadChips. In vivo studies were done in NOD-SCID mice and treatments started with 60 mm3 tumor volumes sc.
Since lenalidomide is active in mantle cell lymphoma (MCL), the synergism of the combination of TK-216 and lenalidomide was confirmed also in two MCL cell lines.

[2] = test system: DLBLC cell lines (TMD8, HBL1, U2932); assay: Dose-effect testing in combination with venetoclax; type: cell-based
Description: In each of FIGS. 13-15, the top curve (×) was for the combination therapy, the middle curve (⊚) was for TK216, and the bottom curve (+) was for venetoclax. FIG. 13 is a dose-effect curve for TK216 in combination with venetoclax in the TMD8 cell line. FIG. 14 is a dose-effect curve for TK216 in combination with venetoclax in the U2932 cell line. FIG. 15 is a dose-effect curve for TK216 in combination with venetoclax in the HLB1 cell line.

DLBCL cell lines [3] = assay: Median-effect combination analysis (CalcuSyn, Chou/Talalay CI); type: cell-based
Description: The median-effect analysis was used to determine synergism, antagonism, or additivity of TK216 when combined with ABT199 (BCL-2i) and ACP196 (BTKi).
The inhibition of the EWS-FLI1 oncogene offers a promising approach for the treatment of Ewing Sarcoma, e.g., relapsed/refractory Ewing Sarcoma.

HL-60 = assay: 72 hr CellTiter-Glo, AML cell line; type: cell-based; conditions: Homo sapiens
[4] = test system: EWS-FLI1 and RNA helicase A; assay: EWS-FLI1 protein interaction (FLI1 immunoprecipitation in A4573); type: binding; conditions: preclinical potency model
Description: (§2) TK216 is a first in class, small molecule that directly binds EWS-FLI1 inhibiting the biological activity of ETS-family transcription factor oncoproteins and is currently under clinical investigation in patients with Ewing sarcoma.
FLI1 was immunoprecipitated following treatment with TK216 or DMSO control in A4573 (see FIG. 2).

SU-DHL-4 = assay: Combination with other agents, MTT, Chou-Talalay combination index; type: cell-based
Description: (§3) Y-axis: CI values. In each box-plot, the line in the middle of the box represents the median and the box extends from the 25th to the 75th percentile (interquartile range, IQ); the whiskers extend to the upper and lower adjacent values (i.e., ±1.5 IQ); outside values have been omitted from the figure. CIs for TK-216/rituximab in TMD8, TK-216/rituximab in Karpas422, TK-216/rituximab in OCI-LY-10 are not plotted due to CI values >3. Combinations tested included bendamustine, bortezomib, ibrutinib, idelalisib, lenalidomide, OTX015 (birabresib, CAS No. 202590-98-5), PQR309 (bimiralisib, CAS No. 1225037-39-7 (free base)), selinexor, venetoclax, and vincristine.
as §1

OCI-LY-10 = assay: as above; type: cell-based
Description: as §3, §1

KARPAS422 = assay: as above; type: cell-based
Description: as §3, §1

TMD8 = assay: as above; type: cell-based
Description: as §3, §1

TMD-8 = assay: 72 hr CellTiter-Glo, DLBCL cell line; type: cell-based; conditions: Homo sapiens, TMD8
[5] = test system: myeloid cell lines (HL-60, Kasumi-1, ML-2, MOLM-13, MOLM-16, and THP-1); assay: Viability and apoptosis in myeloid cell lines; type: cell-based
Description: TK216 also had anti-proliferative effects, causes cell cycle arrest, and induces apoptosis in a panel of AML and DLBCL cell lines with deregulated ETS family members. […] In vivo efficacy studies in xenograft models of DLBCL indicated anti-tumor activity consistent with in vitro findings, confirming the utility and efficacy of TK216 in the treatment of AML and DLBCL by targeting the aberrant expression and translocations in the ETS-family of transcription factors, which contribute to the pathogenesis of the disease.

OCI-Ly18 = assay: 72 hr CellTiter-Glo, DLBCL cell line; type: cell-based; conditions: Homo sapiens
A4573 cells = assay: Proliferation of Ewing sarcoma A4573 cell line; type: cell-based; conditions: A4573 cells (EWS-FLI1 expressing Ewing sarcoma cell line); read-out: EC50, inhibition of proliferation
Description: as §2

O=C(CC1(O)C(=O)Nc2c(Cl)ccc(Cl)c21)c1ccc(C2CC2)cc1 (stereo not drawn) [TK216, 4,7-Dichloro-3-(2-(4-cyclopropylphenyl)-2-oxoethyl)-3-hydroxyindolin-2-one]
combination of TK-216 with the BET inhibitor OTX015 (MK-8628) (DLBCL cell lines [1]; with OTX015, DLBCL cell lines): synergism in 2/4 cells and additive effect in 1/4 cells | combination of TK-216 with the immunomodulator lenalidomide (DLBCL cell lines [1]; with lenalidomide, activated B cell type DLBCL): synergism in 2/2 activated B cell type DLBCL | combination of TK-216 with the anti-CD20 monoclonal antibody rituximab (DLBCL cell lines [1]; with rituximab, DLBCL cell lines): synergism in 2/3 cells | combination of TK-216 with the BCL2 inhibitor venetoclax (DLBCL cell lines [1]; with venetoclax, DLBCL cell lines): synergism in 3/4 cells | combination effect with venetoclax, dose-effect [2]: synergistic effect across doses | combination effect with ABT199 (BCL-2i), Combination Index (DLBCL cell lines [3]; combined with ABT199): synergy | combination effect with ACP196 (BTKi), Combination Index (DLBCL cell lines [3]; combined with ACP196): synergy | IC50 (HL-60): 363 nM | binding between EWS-FLI1 and RNA helicase A [4]: blocked the binding | effect of TK216 in combination with OTX015 (SU-DHL-4; with OTX015): No benefit effects | effect of TK216 in combination with PQR309 (SU-DHL-4; with PQR309): additive effect | effect of TK216 in combination with bendamustine (SU-DHL-4; with bendamustine): No benefit effects | effect of TK216 in combination with idelalisib (SU-DHL-4; with idelalisib): No benefit effects | effect of TK216 in combination with selinexor (SU-DHL-4; with selinexor): No benefit effects | effect of TK216 in combination with venetoclax (SU-DHL-4; with venetoclax): No benefit effects | effect of TK216 in combination with vincristine (SU-DHL-4; with vincristine): Synergism | effect of TK216 in combination with OTX015 (OCI-LY-10; with OTX015): additive effect | effect of TK216 in combination with PQR309 (OCI-LY-10; with PQR309): No benefit effects | effect of TK216 in combination with bendamustine (OCI-LY-10; with bendamustine): No benefit effects | effect of TK216 in combination with bortezomib (OCI-LY-10; with bortezomib): No benefit effects | effect of TK216 in combination with ibrutinib (OCI-LY-10; with ibrutinib): additive effect | effect of TK216 in combination with idelalisib (OCI-LY-10; with idelalisib): Synergism | effect of TK216 in combination with lenalidomide (OCI-LY-10; with lenalidomide): Synergism | CI values, TK-216/rituximab (OCI-LY-10; with rituximab, not plotted): > 3 | effect of TK216 in combination with selinexor (OCI-LY-10; with selinexor): No benefit effects | effect of TK216 in combination with venetoclax (OCI-LY-10; with venetoclax): Synergism | effect of TK216 in combination with vincristine (OCI-LY-10; with vincristine): additive effect | effect of TK216 in combination with OTX015 (KARPAS422; KARPAS422, with OTX015): Synergism | effect of TK216 in combination with PQR309 (KARPAS422; KARPAS422, with PQR309): additive effect | effect of TK216 in combination with bendamustine (KARPAS422; KARPAS422, with bendamustine): additive effect | effect of TK216 in combination with idelalisib (KARPAS422; KARPAS422, with idelalisib): Synergism | effect of TK216 in combination with selinexor (KARPAS422; KARPAS422, with selinexor): additive effect | effect of TK216 in combination with venetoclax (KARPAS422; KARPAS422, with venetoclax): Synergism | effect of TK216 in combination with vincristine (KARPAS422; KARPAS422, with vincristine): additive effect | CI values, TK-216/rituximab (KARPAS422; Karpas422, with rituximab, not plotted): > 3 | effect of TK216 in combination with OTX015 (TMD8; with OTX015): additive effect | effect of TK216 in combination with PQR309 (TMD8; with PQR309): additive effect | effect of TK216 in combination with bendamustine (TMD8; with bendamustine): No benefit effects | effect of TK216 in combination with bortezomib (TMD8; with bortezomib): Synergism | effect of TK216 in combination with ibrutinib (TMD8; with ibrutinib): additive effect | effect of TK216 in combination with lenalidomide (TMD8; with lenalidomide): Synergism | effect of TK216 in combination with lidelalisib (TMD8; with lidelalisib): additive effect | CI values, TK-216/rituximab (TMD8; with rituximab, not plotted): > 3 | effect of TK216 in combination with selinexor (TMD8; with selinexor): additive effect | effect of TK216 in combination with venetoclax (TMD8; with venetoclax): Synergism | effect of TK216 in combination with vincristine (TMD8; with vincristine): No benefit effects | IC50 (TMD-8): 152 nM | cellular viability [5]: decrease in cellular viability | apoptosis of cells ([5]; 48 hours): induced dose-dependent apoptosis | IC50 (OCI-Ly18): 95 nM | EC50 (A4573 cells): < 200 nM
